From patent US9139502B2, “Use of an urushiol compound in preparation of pharmaceutical compositions for inhibiting Smad3 phosphorylation” (Southern Hospital, Southern Medical University, priority 2013, dated 2015)

Experiments:
[1] = tested on: C57BL/6J mice; assay: Single-dose toxicity of GQ-5 in mice; type: in vivo; details: single intraperitoneal dose up to 800 mg/kg, 7-day observation
Method: To test the toxicity of GQ-5, 20 C57BL/6J little male mice which are […], healthy and clean, their weights are between 20 and 22 gram. Antisepsis the feed and water, before and in the layoff period of the test, all the mice should be feed under the normal feeding condition.
Dissolve GQ-5 in 0.5% propylene glycol, this liquor is given to little mice by intraperitoneal injection. The dosage of GQ-5 was 10, 40, 200, and 800 mg/kg body weight of mice. After administration, they are observed for 7 days.

[2] = tested on: Smad2 phosphorylation; assay: Western blot of TGF-β1-induced Smad2 phosphorylation in vitro; type: cell-based, rat
Method: NRK52E and NRK49F cells were cultured in DMEM-Ham's medium supplemented with 10% fetal bovine serum. The cells reached at approximately 50% confluence were used for in vitro experiments. Cells were serum-starved for 12 h, and randomized into 6 groups: (1) Controls; (2) GQ-5 only; (3) TGF-β1 only; (4) TGF-β1+GQ-5 0.1 μM; (5) TGF-β1+GQ-5 0.5 μM; (6) TGF-β1+GQ-5 2.5 μM.
(§1) (2) GQ-5 only: pre-treated with GQ-5 (2.5 μM) for 1 h, followed with DMEM for 1 h
(§2) (3) TGF-β1 only: pre-treated with DMSO (0.1%) for 1 h, followed with TGF-β1 (10 ng/ml) for 1 h
(4) TGF-β1+GQ-5 0.1 μM: pre-treated with GQ-5 (0.1 μM) for 1 h, followed with TGF-β1 (10 ng/ml) for 1 h
(5) TGF-β1+GQ-5 0.5 μM: pre-treated with GQ-5 (0.5 μM) for 1 h, followed with TGF-β1 (10 ng/ml) for 1 h
(6) TGF-β1+GQ-5 2.5 μM: pre-treated with GQ-5 (2.5 μM) for 1 h, followed with TGF-β1 (10 ng/ml) for 1 h.
GQ-5 was dissolved in DMSO. Cells were treated as described. Cell lysates were immunoblotted with antibodies against phospho-Smad3, Smad3, phospho-Smad2, Smad2.
NRK52E cells were cultured in DMEM-Ham's medium supplemented with 10% fetal bovine serum. The cells reached at approximately 50% confluence were used for in vitro experiments. Cells were serum-starved for 12 h, and randomized into 8 groups: (1) Controls; (2) GQ-5 only; (3) TGF-β1 0.5 h; (4) TGF-β1 0.5 h+GQ-5; (5) TGF-β1 1.0 h; (6) TGF-β1 1.0 h+GQ-5; (7) TGF-β1 3.0 h; (8) TGF-β1 3.0 h+GQ-5; […]

[3] = tested on: Smad4; assay: Immunofluorescence staining of Smad4 nuclear translocation; type: cell-based, rat; details: NRK52E cells, GQ-5 2.5 μM pre-treated 1 h, TGF-β1 10 ng/ml 2 h
Method: NRK52E cells were cultured in DMEM-Ham's medium supplemented with 10% fetal bovine serum. The cells reached at approximately 50% confluence were used for in vitro experiments. Cells were serum-starved for 12 h, and randomized into 3 groups: (1) Controls; (2) TGF-β1 only; (3) TGF-β1+GQ-5.
(2) TGF-β1 only: pre-treated with DMSO for 1 h, followed with TGF-β1 (10 ng/ml) for 2 h
(3) TGF-β1+GQ-5: pre-treated with GQ-5 (2.5 μM) for 1 h, followed with TGF-β1 (10 ng/ml) for 2 h
GQ-5 was dissolved in DMSO. Cells were treated as described Immunofluorescence staining was performed to examine the nuclear translocation of Smad2, Smad3, and Smad4.

[4] = biological target: interaction of Smad2 with TβRI (Rattus norvegicus, UniProt O70436); assay: Immunoprecipitation of Smad2 with TβRI in vitro; type: cell-based; set-up: endogenous in cells; host or cells: NRK52E; details: NRK52E cells, GQ-5 2.5 nM pre-treated 1 h, TGF-β1 10 ng/ml 1 h
Chain of interaction of Smad2 with TβRI (O70436 whole entry): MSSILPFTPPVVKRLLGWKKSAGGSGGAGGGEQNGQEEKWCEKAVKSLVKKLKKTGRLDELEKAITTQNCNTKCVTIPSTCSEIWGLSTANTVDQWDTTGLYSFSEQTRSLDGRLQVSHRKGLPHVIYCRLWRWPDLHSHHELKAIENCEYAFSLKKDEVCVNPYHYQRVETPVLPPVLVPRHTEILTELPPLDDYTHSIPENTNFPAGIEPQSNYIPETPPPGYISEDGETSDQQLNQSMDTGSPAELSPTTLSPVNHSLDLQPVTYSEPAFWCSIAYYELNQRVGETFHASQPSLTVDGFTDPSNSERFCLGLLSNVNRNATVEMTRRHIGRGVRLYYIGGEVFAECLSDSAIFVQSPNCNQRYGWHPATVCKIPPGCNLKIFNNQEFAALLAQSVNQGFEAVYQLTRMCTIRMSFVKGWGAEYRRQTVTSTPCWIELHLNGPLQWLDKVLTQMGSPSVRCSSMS
Method: NRK52E cells were cultured in DMEM-Ham's medium supplemented with 10% fetal bovine serum. The cells reached at approximately 50% confluence were used for in vitro experiments. Cells were serum-starved for 12 h, and randomized into 4 groups: (1) Controls; (2) GQ-5 only; (3) TGF-β1 only; (4) TGF-β1+GQ-5
(2) GQ-5 only: pre-treated with GQ-5 (2.5 nM) for 1 h, followed with DMEM for 1 h
(3) TGF-β1 only: pre-treated with DMSO for 1 h, followed with TGF-β1 (10 ng/ml) for 1 h
(§3) (4) TGF-β1+GQ-5: pre-treated with GQ-5 (2.5 nM) for 1 h, followed with TGF-β1 (10 ng/ml) for 1 h
GQ-5 was dissolved in DMSO. Cells were treated as described. Cell lysates were collected for immunoprecipitation to examine the interaction among TGFβ type I receptor (TβRI), TβRII, Smad3 and Smad2.

[5] = tested on: p38; assay: Western blot of TGF-β1-induced p38 phosphorylation in vitro; type: cell-based, rat; details: NRK52E and NRK49F cells, GQ-5 2.5 nM pre-treated 1 h, TGF-β1 10 ng/ml 1 h
Method: NRK52E and NRK49F cells were cultured in DMEM-Ham's medium (Gibco, Life Techologies, NY, USA) supplemented with 10% fetal bovine serum (Gibco, Life Techologies, NY, USA). The cells reached at approximately 50% confluence were used for in vitro experiments. Cells were serum-starved for 12 h, and randomized into 4 groups: (1) Controls; (2) GQ-5 only; (3) TGF-β1 only; (4) TGF-β1+GQ-5
as §1, §2, §3
GQ-5 was dissolved in DMSO. Cells were treated as described. cell lysates were immunoblotted with antibodies against Smad4, Smad7, phospho-p38, p38, phospho-PI3K, PI3K, phosphor-ERK, and ERK.

CCCCCC/C=C\CCCCCCCc1cccc(O)c1O [GQ-5, 3-[(Z)-pentadec-8-enyl]catechol]
death or adverse event [1]: did not die or developed any adverse event
TGF-β1-induced Smad2 phosphorylation ([2]; NRK52E and NRK49F cells, GQ-5 0.1, 0.5, 2.5 μM pre-treated 1 h, TGF-β1 10 ng/ml 1 h): did not affect
TGF-β1-induced Smad2 phosphorylation, time course ([2]; NRK52E cells, GQ-5 2.5 μM pre-treated 1 h, TGF-β1 10 ng/ml 0.5, 1.0, 3.0 h): did not affect
nuclear translocation of Smad4 [3]: also reduced
interaction of Smad2 with TβRI [4]: did not affect
TGF-β1-induced phosphorylation of p38 [5]: did not affect
